Results reported in ChEMBL document CHEMBL5500358, “Identification of CH2-linked quinolone-aminopyrimidine hybrids as potent anti-MRSA agents: Low resistance potential and lack of cross-resistance with fluoroquinolone antibiotics” (Eur J Med Chem, 2024).
Values after ≈ are worked out from the molar mass of the structure shown.

Experiments:
Escherichia coli = test: Antibacterial activity against Escherichia coli ATCC 25922 incubated for 16 to 18 hrs by absorbance based analysis; format: functional; conditions: time 16-18 hrs
Staphylococcus aureus [1] = test: Antibacterial activity against fluoroquinolone-sensitive methicillin resistant Staphylococcus aureus ATCC 33591 incubated for 16 to 18 hrs by absorbance based analysis; format: functional; conditions: time 16-18 hrs
Staphylococcus aureus [2] = test: Antibacterial activity against fluoroquinolone-sensitive methicillin resistant Staphylococcus aureus USA500 incubated for 16 to 18 hrs by absorbance based analysis; format: functional; conditions: time 16-18 hrs
Staphylococcus aureus [3] = test: Antibacterial activity against fluoroquinolone/methicillin resistant Staphylococcus aureus Mu50 incubated for 16 to 18 hrs by absorbance based analysis; format: functional; conditions: time 16-18 hrs
[4] = Metabolic stability in human liver microsomes assessed as compound remaining at 1 uM measured after 60 mins by LC-MS/MS analysis; format: ADME, Microsome; conditions: read-out: Stability
[5] = Metabolic stability in rat liver microsomes assessed as elimination half life at 1 uM by LC-MS/MS analysis; format: ADME, Microsome; conditions: read-out: beta t1/2
[6] = Metabolic stability in rat liver microsomes assessed as microsomal intrinsic clearance at 1 uM by LC-MS/MS analysis; format: ADME, Microsome; conditions: read-out: CLH
[7] = Metabolic stability in human liver microsomes assessed as microsomal intrinsic clearance at 1 uM by LC-MS/MS analysis; format: ADME, Microsome; conditions: read-out: CLH
[8] = Metabolic stability in rat liver microsomes assessed as drug elimination rate constant at 1 uM by LC-MS/MS analysis; format: ADME, Microsome
[9] = Metabolic stability in rat liver microsomes assessed as compound remaining at 1 uM measured after 60 mins by LC-MS/MS analysis; format: ADME, Microsome; conditions: read-out: Stability
[10] = Metabolic stability in human liver microsomes assessed as elimination half life at 1 uM by LC-MS/MS analysis; format: ADME, Microsome; conditions: read-out: beta t1/2
[11] = Metabolic stability in human liver microsomes assessed as drug elimination rate constant at 1 uM by LC-MS/MS analysis; format: ADME, Microsome

Structure (SMILES)	MIC (Escherichia coli)	MIC (Staphylococcus aureus [1])	MIC (Staphylococcus aureus [2])	MIC (Staphylococcus aureus [3])	other results
COc1cccc(Cc2ccnc(Nc3cc4c(cc3F)c(=O)c(C(=O)O)cn4C3CC3)n2)c1	> 64 µg/mL	8 µg/mL (≈ 17.4 µM)			
O=C(O)c1cn(C2CC2)c2cc(Nc3nccc(Cc4ccc(Cl)cc4Cl)n3)ccc2c1=O	> 64 µg/mL	0.25 µg/mL (≈ 0.519 µM)	0.39 µg/mL (≈ 0.81 µM)	0.78 µg/mL (≈ 1.62 µM)	
COc1ccccc1Cc1ccnc(Nc2cc3c(cc2F)c(=O)c(C(=O)O)cn3C2CC2)n1	> 64 µg/mL	4 µg/mL (≈ 8.69 µM)			
Cc1ncc2n1-c1ccc(Cl)cc1C(c1ccccc1F)=NC2 [MIDAZOLAM]					remaining at 1 h, 1 µM [4]: 0.691%; half-life at 1 µM [5]: 2.58 min; microsomal CLint at 1 µM [6]: 1350 µL/min/mg; microsomal CLint at 1 µM [7]: 1250 µL/min/mg; k el at 1 µM [8]: 0.00448 s⁻¹; remaining at 1 h, 1 µM [9]: 0.48%; half-life at 1 µM [10]: 2.77 min; k el at 1 µM [11]: 0.00417 s⁻¹
C[C@H]1COc2c(N3CCN(C)CC3)c(F)cc3c(=O)c(C(=O)O)cn1c23 [LEVOFLOXACIN ANHYDROUS]			0.2 µg/mL (≈ 0.553 µM)	25 µg/mL (≈ 69.2 µM)	
Cc1ccc(Cc2ccnc(Nc3cc4c(cc3F)c(=O)c(C(=O)O)cn4C3CC3)n2)cc1	> 64 µg/mL	2 µg/mL (≈ 4.5 µM)			
O=C(O)c1cn(C2CC2)c2cc(Nc3nccc(Cc4cccc(F)c4)n3)c(F)cc2c1=O	> 64 µg/mL	2 µg/mL (≈ 4.46 µM)			
O=C(O)c1cn(C2CC2)c2cc(Nc3nccc(Cc4ccc(Cl)cc4)n3)ccc2c1=O	> 64 µg/mL	0.5 µg/mL (≈ 1.12 µM)	1.56 µg/mL (≈ 3.49 µM)	1.56 µg/mL (≈ 3.49 µM)	
O=C(O)c1cn(C2CC2)c2cc(Nc3nccc(Cc4ccccc4Cl)n3)ccc2c1=O	> 64 µg/mL	0.5 µg/mL (≈ 1.12 µM)	3.12 µg/mL (≈ 6.98 µM)	3.12 µg/mL (≈ 6.98 µM)	
O=C(O)c1cn(C2CC2)c2cc(Nc3nccc(Cc4ccc(F)c(F)c4)n3)c(F)cc2c1=O	> 64 µg/mL	1 µg/mL (≈ 2.14 µM)	6.25 µg/mL (≈ 13.4 µM)	6.25 µg/mL (≈ 13.4 µM)	
O=C(O)c1cn(C2CC2)c2cc(Nc3nccc(Cc4ccc(F)cc4)n3)c(F)cc2c1=O	> 64 µg/mL	2 µg/mL (≈ 4.46 µM)			
O=C(O)c1cn(C2CC2)c2cc(Nc3nccc(Cc4ccccc4F)n3)c(F)cc2c1=O	> 64 µg/mL	2 µg/mL (≈ 4.46 µM)			
Cc1ccccc1Cc1ccnc(Nc2cc3c(cc2F)c(=O)c(C(=O)O)cn3C2CC2)n1	> 64 µg/mL	2 µg/mL (≈ 4.5 µM)			
Cc1ccc(Cc2ccnc(Nc3ccc4c(=O)c(C(=O)O)cn(C5CC5)c4c3)n2)c(C)c1	> 64 µg/mL	1 µg/mL (≈ 2.27 µM)	1.56 µg/mL (≈ 3.54 µM)	1.56 µg/mL (≈ 3.54 µM)	
O=C(O)c1cn(C2CC2)c2cc(Nc3nccc(Cc4ccc(F)cc4F)n3)c(F)cc2c1=O	> 64 µg/mL	1 µg/mL (≈ 2.14 µM)	3.12 µg/mL (≈ 6.69 µM)	3.12 µg/mL (≈ 6.69 µM)	
O=C(O)c1cn(C2CC2)c2cc(Nc3nccc(Cc4ccc(Cl)c(Cl)c4)n3)c(F)cc2c1=O	> 64 µg/mL	0.5 µg/mL (≈ 1 µM)	6.25 µg/mL (≈ 12.5 µM)	6.25 µg/mL (≈ 12.5 µM)	
Cc1ccc(Cc2ccnc(Nc3cc4c(cc3F)c(=O)c(C(=O)O)cn4C3CC3)n2)c(C)c1	> 64 µg/mL	1 µg/mL (≈ 2.18 µM)	6.25 µg/mL (≈ 13.6 µM)	6.25 µg/mL (≈ 13.6 µM)	
